According to patent US20230031406A1, “COMPOUNDS AND COMPOSITIONS FOR TREATING CONDITIONS ASSOCIATED WITH NLRP ACTIVITY” (Novartis AG, priority 2018, published 2023):
Read-outs that look alike come from different tables or passages of the source.

Tested on: PMA-differentiated THP-1 cells
Assay: hTHP-1 assay containing 10% fetal bovine serum (IL-1β production, Tables B5 and B6)
Assay type: cell-based, human
Procedure: The following protocol is suitable for testing the activity of the compounds disclosed herein. Procedure 1: IL-1β Production in PMA-Differentiated THP-1 Cells Stimulated with Gramicidin.
THP-1 cells were purchased from the American Type Culture Collection and sub-cultured according to instructions from the supplier. Cells were cultured in complete RPMI 1640 (containing 10% heat inactivated FBS, penicillin (100 units/ml) and streptomycin (100 μg/ml)), and maintained in log phase prior to experimental setup. Prior to the experiment, compounds were dissolved in dimethyl sulfoxide (DMSO) to generate a 30 mM stock. The compound stock was first pre-diluted in DMSO to 3, 0.34, 0.042 and 0.0083 mM intermediate concentrations and subsequently spotted using Echo550 liquid handler into an empty 384-well assay plate to achieve desired final concentration (e.g. 100, 33, 11, 3.7, 1.2, 0.41, 0.14, 0.046, 0.015, 0.0051, 0.0017 μM). DMSO was backfilled in the plate to achieve a final DMSO assay concentration of 0.37%. The plate was then sealed and stored at room temperature until required.
THP-1 cells were treated with PMA (Phorbol 12-myristate 13-acetate) (20 ng/ml) for 16-18 hours. On the day of the experiment the media was removed and adherent cells were detached with trypsin for 5 minutes. […] The cells were plated in the 384-well assay plate containing the spotted compounds at a density of 50,000 cells/well (final assay volume 50 μl). Cells were incubated with compounds for 1 hour and then stimulated with gramicidin (5 μM) (Enzo) for 2 hours. Plates were then centrifuged at 340 g for 5 min. Cell free supernatant (40 μL) was collected using a 96—CHannel PlateMaster (Gilson) and the production of IL-1β was evaluated by HTRF (cisbio). The plates were incubated for 18 h at 4° C. and read using the preset HTRF program (donor emission at 620 nm, acceptor emission at 668 nm) of the SpectraMax i3x spectrophotometer (Molecular Devices, software SoftMax 6). A vehicle only control and a dose titration of CRID3 (100-0.0017 μM) were run concurrently with each experiment.
Procedure 2: IL-1β Production in PMA-Differentiated THP-1 Cells Stimulated with Gramicidin.
THP-1 cells were purchased from the American Type Culture Collection and sub-cultured according to instructions from the supplier. Prior to experiments, cells were cultured in complete RPMI 1640 (containing 10% heat inactivated FBS, penicillin (100 units/ml) and streptomycin (100 μg/ml)), and maintained in log phase prior to experimental setup. Prior to the experiment THP-1 were treated with PMA (Phorbol 12-myristate 13-acetate) (20 ng/ml) for 16-18 hours. Compounds were dissolved in dimethyl sulfoxide (DMSO) to generate a 30mM stock. On the day of the experiment the media was removed and adherent cells were detached with trypsin for 5 minutes. […] The cells were plated in a 384-well plate at a density of 50,000 cells/well (final assay volume […]). Compounds were first dissolved in assay medium to obtain a 5× top concentration of 500 μM. 10 step dilutions (1:3) were then undertaken in assay medium containing 1.67% DMSO. 5× compound solutions were added to the culture medium to achieve desired final concentration (e.g. 100, 33, 11, 3.7, 1.2, 0.41, 0.14, 0.046, 0.015, 0.0051, 0.0017 μM). Final DMSO concentration was at 0.37%. Cells were incubated with compounds for 1 hour and then stimulated with gramicidin (5 μM) (Enzo) for 2 hours. Plates were then centrifuged at 340 g for 5 min. Cell free supernatant (40 μL) was collected using a 96—CHannel PlateMaster (Gilson) and the production of IL-1β was evaluated by HTRF (cisbio). A vehicle only control and a dose titration of CRID3 (100-0.0017 μM) were run concurrently with each experiment.
Tables B1, B2, B3, and B4 show the biological activity of compounds in hTHP-1 assay containing 2% fetal bovine serum. […] Key: <0.008 μM=“++++++”; ≥0.008 and <0.04 μM=“+++++”; >0.04 and <0.2 μM=“++++”; ≥0.2 and <1 μM=“+++”; ≥1 and <5 μM=“++”; ≥5 and <30 μM=“+”. […]

[1] = read-out: hTHP-1 IC50 in 10% FBS, hTHP-1 assay containing 10% fetal bovine serum, Table B6

Work on `C[C@@H]1CCc2c1nc1c(c2NC(=O)N=S(N)(=O)c2scc(C(C)(C)O)c2F)CCC1` (single isomer, unassigned) [Compound 1109b, (S) or (R)-3-fluoro-4-(2-hydroxypropan-2-yl)-N′-(((R)-3-methyl-1,2,3,5,6,7-hexahydrodicyclopenta [b,e]pyridin-8-yl)-carbamoyl) thiophene-2-sulfonimidamide] yielded an IC50 (read-out: hTHP-1 IC50 in 10% FBS, hTHP-1 assay containing 10% fetal bovine serum, Table B5, listed as 843) of 0.2 to 1 µM.

For `Cc1nc2c(c(NC(=O)N=S(N)(=O)c3scc(C(C)(C)O)c3F)c1-c1ccccc1)CCC2` (single isomer, unassigned) [Compound 1110a, (S) or (R)-3-fluoro-4-(2-hydroxypropan-2-yl)-N′-((2-methyl-3-phenyl-6,7-dihydro-5H-cyclopenta[b]pyridin-4-yl)carbamoyl)thiophene-2-sulfonimidamide], the IC50 (read-out: hTHP-1 IC50 in 10% FBS, hTHP-1 assay containing 10% fetal bovine serum, Table B5, listed as 844) was 0.2 to 1 µM.

In the case of `Cc1nc2c(c(NC(=O)N=S(N)(=O)c3scc(C(C)(C)O)c3F)c1-c1ccccc1)CCC2` (single isomer, unassigned) [Compound 1110b, (R) or (S)-3-fluoro-4-(2-hydroxypropan-2-yl)-N′-((2-methyl-3-phenyl-6,7-dihydro-5H-cyclopenta[b]pyridin-4-yl)carbamoyl)thiophene-2-sulfonimidamide], the IC50 (read-out: hTHP-1 IC50 in 10% FBS, hTHP-1 assay containing 10% fetal bovine serum, Table B5, listed as 845) is reported as under 0.008 µM.

`CCn1cc(F)c(S(N)(=O)=NC(=O)Nc2c3c(nc(C(F)(F)F)c2-c2ccc(F)c(F)c2)CCC3)n1` (single isomer, unassigned) [Compound 1113a, (S) or (R)-N′-((3-(3,4-difluorophenyl)-2-(trifluoromethyl)-6,7-dihydro-5H-cyclopenta[b]pyridin-4-yl)carbamoyl)-1-ethyl-4-fluoro-1H-pyrazole-3-sulfonimidamide] showed an IC50 (read-out: hTHP-1 IC50 in 10% FBS, hTHP-1 assay containing 10% fetal bovine serum, Table B5, listed as 836) of 0.2 to 1 µM.

With `CCn1cc(F)c(S(N)(=O)=NC(=O)Nc2c3c(nc(C(F)(F)F)c2-c2ccc(F)c(F)c2)CCC3)n1` (single isomer, unassigned) [Compound 1113b, (R) or (S)-N′-((3-(3,4-difluorophenyl)-2-(trifluoromethyl)-6,7-dihydro-5H-cyclopenta[b]pyridin-4-yl)carbamoyl)-1-ethyl-4-fluoro-1H-pyrazole-3-sulfonimidamide] the IC50 (read-out: hTHP-1 IC50 in 10% FBS, hTHP-1 assay containing 10% fetal bovine serum, Table B5, listed as 837) was 0.008 to 0.04 µM.

`CC(F)(F)n1cc(F)c(S(N)(=O)=NC(=O)Nc2c3c(nc4c2CCC4)CCC3)n1` (single isomer, unassigned) [Compound 1115a, (R) or (S)-1-(1,1-difluoroethyl)-4-fluoro-N′-((l,2,3,5,6,7-hexa-hydrodicyclopenta[b,e]pyridin-8-yl)carbamoyl)-1H-pyrazole-3-sulfonimidamide] gave an IC50 (read-out: hTHP-1 IC50 in 10% FBS, hTHP-1 assay containing 10% fetal bovine serum, Table B5, listed as 846) of 0.2 to 1 µM.

`CC(F)(F)n1cc(F)c(S(N)(=O)=NC(=O)Nc2c3c(nc4c2CCC4)CCC3)n1` (single isomer, unassigned) [Compound 1115b, (S) or (R)-1-(1,1-difluoroethyl)-4-fluoro-N′-((1,2,3,5,6,7-hexa-hydrodicyclopenta[b,e]pyridin-8-yl)carbamoyl)-1H-pyrazole-3-sulfonimidamide] showed an IC50 (read-out: hTHP-1 IC50 in 10% FBS, hTHP-1 assay containing 10% fetal bovine serum, Table B5, listed as 847) of 5 to 30 µM.

Compound `CCn1cc(F)c(S(N)(=O)=NC(=O)Nc2c3c(nc(C)c2C(F)(F)F)CCC3)n1` (single isomer, unassigned) [Compound 1116a, (R) or (S)-1-ethyl-4-fluoro-N′-((2-methyl-3-(trifluoromethyl)-6,7-dihydro-5H-cyclopenta[b]pyridin-4-yl)carbamoyl)-1H-pyrazole-3-sulfonimidamide] has an IC50 (read-out: hTHP-1 IC50 in 10% FBS, hTHP-1 assay containing 10% fetal bovine serum, Table B5, listed as 848) of 0.008 to 0.04 µM.

With `CCn1cc(F)c(S(N)(=O)=NC(=O)Nc2c3c(nc(C)c2C(F)(F)F)CCC3)n1` (single isomer, unassigned) [Compound 1116b, (S) or (R)-1-ethyl-4-fluoro-N′-((2-methyl-3-(trifluoromethyl)-6,7-dihydro-5H-cyclopenta[b]pyridin-4-yl)carbamoyl)-1H-pyrazole-3-sulfonimidamide] the IC50 (read-out: hTHP-1 IC50 in 10% FBS, hTHP-1 assay containing 10% fetal bovine serum, Table B5, listed as 849) was 1 to 5 µM.

Work on `C[C@@H]1CCc2c1nc1c(c2NC(=O)N=S(N)(=O)c2nn(C(C)(F)F)cc2F)CCC1` (single isomer, unassigned) [Compound 1117a, (R) or (S)-1-(1,1-difluoroethyl)-4-fluoro-N′-(((R)-3-methyl-1,2,3,5,6,7-hexahydrodicyclopenta[b,e]pyridin-8-yl)carbamoyl)-1H-pyrazole-3-sulfonimidamide] yielded an IC50 (read-out: hTHP-1 IC50 in 10% FBS, hTHP-1 assay containing 10% fetal bovine serum, Table B5, listed as 850) of 0.008 to 0.04 µM.

`C[C@@H]1CCc2c1nc1c(c2NC(=O)N=S(N)(=O)c2nn(C(C)(F)F)cc2F)CCC1` (single isomer, unassigned) [Compound 1117b, (S) or (R)-1-(1,1-difluoroethyl)-4-fluoro-N′-(((R)-3-methyl-1,2,3,5,6,7-hexahydrodicyclopenta[b,e]pyridin-8-yl)carbamoyl)-1H-pyrazole-3-sulfonimidamide] showed an IC50 (read-out: hTHP-1 IC50 in 10% FBS, hTHP-1 assay containing 10% fetal bovine serum, Table B5, listed as 851) of 0.2 to 1 µM.

Compound `NS(=O)(=NC(=O)Nc1c2c(nc3c1CCC3)CCC2)c1nn(C2CC2)cc1F` (single isomer, unassigned) [Example 863, (R) or (S)-1-cyclopropyl-4-fluoro-N′-((1,2,3,5,6,7-hexahydrodicyclopenta[b,e]pyridin-8-yl)carbamoyl)-1H-pyrazole-3-sulfonimidamide] has an IC50 [1] of 0.04 to 0.2 µM.

Work on `NS(=O)(=NC(=O)Nc1c2c(nc3c1CCC3)CCC2)c1nn(C2CC2)cc1F` (single isomer, unassigned) [Example 864, (S) or (R)-1-cyclopropyl-4-fluoro-N′-((1,2,3,5,6,7-hexahydrodicyclopenta[b,e]pyridin-8-yl)carbamoyl)-1H-pyrazole-3-sulfonimidamide] yielded an IC50 [1] of 0.2 to 1 µM.

`NS(=O)(=NC(=O)Nc1c2c(nc3c1CCC31CC1)CCC2)c1nn(C2CC2)cc1F` (single isomer, unassigned) [Example 865, (R) or (S)-1-cyclopropyl-4-fluoro-N′-((1′,5′,6′,7′-tetrahydro-2′H-spiro[cyclopropan-1,3′-dicyclopenta[b,e]pyridin]-8′-yl)carbamoyl)-1H-pyrazole-3-sulfonimidamide] showed an IC50 (Homo sapiens, THP-1, read-out: hTHP-1 IC50 in 10% FBS, hTHP-1 assay containing 10% fetal bovine serum, Table B6) of 0.04 to 0.2 µM.

For `NS(=O)(=NC(=O)Nc1c2c(nc3c1CCC31CC1)CCC2)c1nn(C2CC2)cc1F` (single isomer, unassigned) [Example 866, (S) or (R)-1-cyclopropyl-4-fluoro-N′-((1′,5′,6′,7′-tetrahydro-2′H-spiro[cyclopropan-1,3′-dicyclopenta[b,e]pyridin]-8′-yl)carbamoyl)-1H-pyrazole-3-sulfonimidamide], the IC50 [1] was 0.04 to 0.2 µM.
